According to patent US7276050B2, “Trans-scleral drug delivery method and apparatus” (priority 2004, dated 2007):

Assays:
[1] = Trans-scleral diffusion in 2 chamber perfusion apparatus (HPLC readout); type: in vitro ADME, human
Description: Scleral tissue was obtained from 23 human donor eyes (Georgia Eye Bank, Atlanta) and was stored in moist chambers for 2-6 days post-mortem. The mean age at time of death (±SE) for the donor tissue used in this study was 52.4±4.4 years. Scleral tissue was dissected from the superotemporal quadrant of each eye to minimize associated structures that can modify scleral permeability such as vortex veins, posterior ciliary arteries, and anterior ciliary vessels. Uveal tissue and episclera were carefully removed using a cotton-tip applicator. The sclera was mounted horizontally in a 2 chamber acrylic perfusion apparatus (FIG. 1). The uveal surface was apposed to the lower flow-through hemi-chamber (volume 500 μL) containing balanced salt solution (BSS, Alcon laboratories, Ft. Worth, Tex.). The test solution was applied to the episcleral surface. Since CAI has a 423 Da molecular weight and the molecule is hydrophobic with a solubility of 1-10 μM in water, three different test solutions that contained carboxyamido-triazole were evaluated: CAI in 20% DMSO (80% BSS vol/vol) at a concentration (mean±SE) of 15.2±3.0 μM (solution A), CAI in 10% DMSO (90% BSS) at a concentration of 4.1±0.4 μM (solution B), and CAI in 10% ethanol (90% BSS) at a concentration of 3.3±0.2 μM (solution C).
The BSS in the lower hemi-chamber was perfused at a rate of 0.03 ml/min. The perfusion apparatus was placed on a magnetic stir plate and mixing in the lower hemi-chamber was achieved using a stir bar. The upper hemi-chamber containing the test compound was covered with parafilm and sealed with silicone grease to prevent evaporation. This also provided a flexible seal so that trans-scleral pressure would not be altered. The temperature of the apparatus was maintained at 37° C. by a water jacket with circulating water bath.
A physiologic pressure of 15 mm Hg was applied across the sclera by raising the height of the outflow tube of the receptor (lower-) chamber to 22 cm. A pressure transducer that was connected to the lower hemi-chamber verified the pressure. For all three solutions that contained carboxyamido-triazole 100 μl was applied to the episcleral side and samples of perfusate were collected at the uveal side of the sclera at time zero and at 30-minute intervals for the duration of 8 hours. The scleral permeability to CAI in a 10% ethanol solution was also evaluated over a longer period of 24 hours of which samples were taken hourly. For the 24 hours experiments 500 μl of the test solution was added to the upper hemi-chamber to minimize depletion of the drug on the donor side.
From each sample obtained from the trans-scleral diffusion experiments an aliquot of 100 μl was taken and the concentrations of CAI were monitored by reverse-phase high-performance liquid chromatography (HPLC). Results were calculated on the basis of peak areas. Samples were analyzed by using a Hewlett Packard HP1100 HPLC system equipped with a UV detector, an auto-sampler, a pump, and a HP Kayak workstation that controls the operation of HPLC and analyzes the data. A Zorbak Rx-C8 column (4.6×250 mm) was used for separation and detection was set at 260 nm. The flow rate employed was 1.0 ml/min with mobile phase of 55% acetonitrile and 45% water. The injection volume was 100 μl and retention time of CAI was about 7.8 minutes.
Steady state permeability constants were calculated from the data as: Ktrans=[Rtotal/(t)(A)]×1/[D]
Where Rtotal is the amount of drug in the receiver effluent per collected fraction, and t is the fraction collection time (in seconds). A is the area of exposed sclera (in square centimeters). This value—Rtotal/(t)(A)—is equal to the flux across the tissue. D is the concentration of drug in the donor hemi-chamber. Permeability thus represents the steady state flux normalized by donor concentration. The area of exposed sclera was 0.385 cm2. Mean steady state permeability values (±SE) were calculated from four to eight experiments performed for each compound.

[2] = Transmission electron microscopy of sclera after diffusion experiments; set-up: species or system human; conditions: after diffusion experiments with CAI in all three test solutions
Description: At the end of the trans-scleral diffusion experiments with CAI (DMSO 10%, 20%, and ethanol 10%) and 2ME2 (1% DMSO) the scleral tissue was fixed in 2.5% glutaraldehyde in 0.1 M sodium cacodylate buffer and prepared for transmission electron microscopy (TEM). The scleral tissue was bisected and postfixed in 2% osmium tetroxide for 2 hours. Small pieces of the sclera were embedded in low-viscosity epoxy medium, thin sectioned, stained with uranyl acetate and lead citrate, and viewed with a JEOL 100 CX transmission electron microscope. The micrographs were taken at X 2850.

[3] = test system: hyperoxia-induced ocular neovascularization; assay: Mouse pup model of hyperoxia-induced ocular neovascularization; type: in vivo
Description: Testing of CAI in a mouse pup model of hyperoxia-induced ocular neovascularization, in which posterior retinal ischemia mediates of pathological angiogenesis, has confirmed that CAI is a potent inhibitor of ocular angiogenesis in this model.

[4] = cited from earlier work
[5] = mouse pup, hyperoxia-induced ocular neovascularization

NC(=O)c1nnn(Cc2cc(Cl)c(C(=O)c3ccc(Cl)cc3)c(Cl)c2)c1N [CAI, Carboxyamido-triazole]
diffusion across the sclera [1]: diffused across the sclera effectively
time at which semi-steady state flux was observed ([1]; human, 3.3 μM): 13 h
time to reach steady state ([1]; human, 4.1 μM): 6 h
time to reach semi-steady state ([1]; human, 15.2 μM): approximately 5 hours
Papp at 8 h, 15.2 μM ([1]; solution A: 15.2 μM CAI in 20% DMSO (80% BSS), human sclera, 37° C., 15 mm Hg, n=4, read-out: permeability constant (mean±SE)): 2.8 ×10⁻⁶ cm/s
Papp at 8 h, 4.1 μM ([1]; solution B: 4.1 μM CAI in 10% DMSO (90% BSS), human sclera, n=7, read-out: permeability constant (mean±SE)): 5.5 ×10⁻⁶ cm/s
Papp at 24 h, 3.3 μM ([1]; solution C: 3.3 μM CAI in 10% EtOH (90% BSS), 24 hour sampling, human sclera, n=4, read-out: permeability constant (mean±SE)): 4.16 ×10⁻⁶ cm/s
scleral ultrastructure by TEM [2]: normal ultrastructure within the sclera
intracellular bcl-2 (immunohistochemistry) ([3]; ischemic inner plexiform layer, mouse pup model): up regulation of intracellular bcl-2
formation of neovascular fronds [3, 5]: nearly completely abolished formation of neovascular fronds
regression of preformed neovascular fronds [3, 5]: dramatic and significant regression of preformed neovascular fronds
solubility in water [4]: 1 to 10 µM
